The source of these data is patent US9969701B2, “Salts and co-crystals of lesinurad” (CRYSTAL PHARMATECH, INC., priority 2013, dated 2018).

Series [1] is described as follows: Stability assessment under stress conditions (solid form by XRPD after storage). Type of series: physicochemical. The conditions noted are these: 14 days; for Stability under stress conditions: 25° C./60% RH and 40° C./75% RH; for Final form: XRPD. The method, then:
Analytical Instrument: Panalytical Empyrean. The X-ray powder diffractogram was determined by mounting a sample of the crystalline material on a Si single crystal low-background holder and spreading out the sample into a thin layer with the aid of a microscope slide. The 2θ position was calibrated against Panalytical 640 Si powder standard. The sample irradiated with X-rays generated by a copper long-fine focus tube operated at 45 kV and 40 mA with a wavelength of Kα1=1.540589 angstroms and Kα2=1.544426 angstroms (Kα1/Kα2 intensity ratio is 0.50). The collimated X-ray source was passed through a programmed divergence slit set at 10 mm and the reflected radiation directed through a 5.5 mm anti-scattering slit. The sample was exposed for 16.3 seconds per 0.013° 2-theta increment (continuous scan mode) over the range 3 degrees to 40 degrees 2-theta in theta-theta mode. The running time was 3 minutes and 57 seconds. The instrument was equipped with an RTMS detector (X'Celerator). Control and data capture was accomplished by means of a Dell Optiplex 780 XP operating with data collector software.
The solid samples were analyzed by […].
The solid samples were analyzed by XRPD.

Series [2] in a line: Hygroscopicity assessment by dynamic vapor sorption (DVS). Type of series: physicochemical. The method, then: Dynamic Vapor Sorption (DVS) was measured via a SMS (Surface Measurement Systems) DVS Intrinsic. The relative humidity at 25° C. was calibrated against deliquescence point of LiCl, Mg(NO3)2 and KCl. Typical Parameters for DVS test are listed below.
Gas and flow rate: N2, 200 mL/min

A short description of series [3]: Kinetic solubility in bio-relevant media (FaSSIF, FeSSIF), HPLC quantification. The format is physicochemical. The conditions noted are these: thermodynamic from solid, RT; for solubility at 1 h: time point 1 h; for solubility at 4 h: time point 4 h; for solubility at 24 h: time point 24 h. As for the experimental part:
2. Add 3 mL of bio-relevant medium into each vial.
3. Cap the vials and keep all the suspension samples stirring at RT (room temperature) using a rolling incubator at a rate of 25 r/min.
4. Sample at 1 h, 4 h and 24 h respectively. About 0.6 mL aliquot of the suspension is transferred per time from solubility vial into a centrifuge filtration tube (pore size of 0.45 μm).
5. Centrifuge filtration tubes at a rate of 8500 rpm for 3 minutes at RT, collect 0.2 mL of supernatant for HPLC quantification determination and collect the rest of solution for pH measurement, and separate the solid for XRPD characterization.

Another series concerns gout patients. The settings on record: gout patients who did not get benefit from allopurinol and febuxostat; lesinurad alone; cited from earlier work.
[4] abbreviates: FaSSIF (fasted state simulated intestinal fluid), FaSSIF.
The mark [5] stands for this setting: FeSSIF (fed state simulated intestinal fluid), FeSSIF.

Converted amounts (≈) assume the structure as drawn.

Consider `O=C(O)CSc1nnc(Br)n1-c1ccc(C2CC2)c2ccccc12.O=C(O)[C@@H]1CCCN1`, for which, in series [1], the “Stability under stress conditions” value was “stable”. In addition, the Final form result in series [1] (stored under 25° C./60% RH) and in series [1] (stored under 40° C./75% RH) was “co-crystal” each time.

Consider `O=C([O-])CSc1nnc(Br)n1-c1ccc(C2CC2)c2ccccc12.O=C([O-])CSc1nnc(Br)n1-c1ccc(C2CC2)c2ccccc12.[Ca+2]` [calcium salt Form A], for which the “Stability under stress conditions” value in series [1] is given as “stable”. Besides, the Final form entry in series [1] (stored under 25° C./60% RH) and in series [1] (stored under 40° C./75% RH) was “calcium salt Form A” each time. Further, the “Water uptake under 80% RH” value in series [2] (25° C., 80% RH) amounted to 0.15%. In addition, the “Water uptake under 95% RH” value in series [2] (25° C.) turned out to be 0.33%. Further, the Hygroscopicity result in series [2] (80% RH, 25° C., European pharmacopoeia criteria) is “almost not hygroscopic”. The “Deliquescence under high humidity conditions” value in series [2] (high humidity) is reported as “does not deliquesce”.

Take `O=C(O)CSc1nnc(Br)n1-c1ccc(C2CC2)c2ccccc12` [lesinurad freeacid, 2-((5-bromo-4-(4-cyclopropylnaphthalen-1-yl)-4H-1,2,4-triazol-3-yl)thio)acetic acid]: in series [3] (setting [4]), the solubility (commonly how much of the substance goes into solution per volume) at 1 h was 2890 µg/mL (≈ 7.15 mM), the concentration in solution (solubility at 4 h) came to 3580 µg/mL (≈ 8.86 mM) and the solubility at 24 h was 3000 µg/mL (≈ 7.42 mM). In series [3] (setting [5]), this molecule yielded a solubility at 1 h of 1510 µg/mL (≈ 3.72 mM), a solubility at 4 h of 2140 µg/mL (≈ 5.29 mM) and a solubility at 24 h of 1930 µg/mL (≈ 4.78 mM). In addition, in the series on gout patients, the “Serum levels of uric acid” value is given as “significantly reduced”.

Take `O=C([O-])CSc1nnc(Br)n1-c1ccc(C2CC2)c2ccccc12.[Na+]` [sodium salt Form A, reference compound]: in series [2] (25° C., 80% RH), the “Water uptake under 80% RH” value was determined as 25.11%. Besides, the “Water uptake under 95% RH” value in series [2] (25° C.) was found to be 32.13%.
